Measurements from patent US20060281806A1, “Treatment and inhibition of disease conditions using flexible heteroarotinoids” (priority 2005, published 2006).
Entries after “also recorded” stand apart in the source; their conditions may differ.

Tests used:
[1] = system: OVCAR-3 xenograft tumors; assay: OVCAR-3 xenograft tumor animal model, tumor growth; type: in vivo, mouse; settings: 10 mg/kg/day by gavage, 5 days/week, 4 weeks; t-test on day 29
Procedure: Groups of 5 mice bearing OVCAR-3 xenografted tumors were gavaged daily with the indicated drugs in sesame oil (▪ closed square) or with sesame oil alone (∘ open circle). Tumor volumes were measured in 3 dimensions with calipers weekly. Each data point represents the average and standard error of the tumor volumes on the indicated treatment day relative to the tumor volume on day zero. Nu/nu mice were injected subcutaneously with one million OVCAR-3 cells and arbitrarily divided into five groups of six mice each. After three weeks of tumor growth, the animals were gavaged with sesame oil, 10 mg/kg/day 4-HPR, or the indicated Het five times per week for four weeks and the tumors were measured once per week. The tumor sizes were averaged and divided by the average size for each group on the day that treatment was initiated (day 0).
The OVCAR-3 cultures were maintained in RPMI media supplemented with 10% fetal bovine serum. All animal experimentation described in this manuscript was conducted in accord with accepted standards of humane animal care. Twenty-five female NU/NU CD-1 female mice (Charles Rivers Laboratories) were housed in a laminar flow room under sterile conditions at 83-85° F. The mice were quarantined for one week prior to the beginning of the study and were allowed access to autoclaved food (Purina 5001 mouse/rat sterilizable diet, St. Louis, Mo.) and water ad libitum. OVCAR-3 cells in log phase growth were harvested by trypsinization, resuspended in RPMI culture medium, and centrifuged at 3,000 rpm for 10 min. The pellets were resuspended in RPMI culture medium at a concentration of 7×10^6 cells/ml before implantation into mice. Animals were injected with 3.5×10^6 cells into the right scapular region with a 24-gauge needle/1 cc tuberculin syringe. Twenty-four hours after tumor implantation, animals were randomized into 5 groups of 5 animals each.
The Hets SHet50, SHetA2 and SHetA4 were synthesized and their receptor specificity determined as previously described (17,19). The 4-HPR compound was a gift from R.W. Johnson Pharmaceutical Research Institute, Raritan, N.J. All retinoids were dissolved in super refined sesame oil (Croda, Inc., Parsippany, N.J.) and stored at −80° C. Since the retinoids are light sensitive, all manipulations involving retinoids were performed under subdued lighting. […] Tumors were measured with calipers weekly, and tumor volumes were calculated using the formula: volume=length×width×height. Tumor growth was determined by the dividing the volume of the tumor at each weekly measurement by the volume on the first day of treatment. Animal weights and clinical signs of overall health status and cutaneous toxicities were recorded weekly.

[2] = Alanine aminotransferase (ALT) activity in plasma of mice; type: in vivo, mouse; settings: end of treatment, 10 mg/kg/day by gavage
Procedure: At the end of the treatment period, blood was drawn from each animal. Plasma was separated by centrifugation and stored at −70° C. The activity of ALT was determined in aliquots of plasma by standard spectrophotometric enzymatic techniques which are based on the reduction of pyruvate by lactate dehydrogenase (28). The method measures NADH disappearance with time of incubation at 37° C. The activities are expressed as mm/L/min. Two different amounts of plasma were used in each assay to assure measurement of the maximum rate.

[3] = system: ovarian carcinoma organotypic cultures; assay: Organotypic culture model of ovarian tumors; type: cell-based, human; settings: 1 μM retinoid in media; 3, 7 or 14 days
Procedure: FIG. 17. Retinoid effects on ovarian carcinoma organotypic cultures. Organotypic cultures of OVCAR-3 (A, B, E, F, I and J), Caov-3 (C and G), SK-OV-3 (D and H), and O2 (K and L) were grown in the absence (−, top row and K) or presence (+, middle row and I, J and L) of retinoid HetA4 at a concentration of 1 μM in the media. All sections were stained with H&E except for I, which was stained with PAS to detect glycoproteins and glandular differentiantion, and J, which was stained with the TUNEL assay to detect apoptosis. All magnifications are 40×.
To test our hypotheses, we evaluated the effects of clinically achievable concentrations of 4-HPR and Flex-Hets on growth, differentiation and apoptosis in ovarian tissue. A series of compounds with a variety of receptor activation profiles were evaluated. In order to evaluate therapeutic effects, we developed an organotypic culture model of ovarian tumors by growing established cell lines and primary cultures inside collagen gels. Monolayer cultures of cells are not accurate representations of in vivo tissue because they lack the types of interactions that cells have with other cells and with the extracellular matrix in vivo. These interactions are known to influence gene expression and thus the constitution and behavior of cells. In our organotypic model, the growth of tumor cells inside the collagen allows a representation of tumors that have invaded stromal tissue. In the presence of fibroblasts, established cell lines and primary cultures of ovarian cancer formed colonies inside the collagen, while normal or benign ovarian epithelial cells remained as single cells inside the collagen. Human ovarian cancer cell lines (OVCAR-3, Caov-3, SK-OV-3, A2780, UCI 101) and primary human cultures (borderline ovarian tumor (O1), serous papillary tumor (O2), benign ovarian cyst (O3)) were cultured inside and on top of a collagen gel seeded with 3T3 fibroblasts for one week. After further incubation in the presence or absence of 1 μM retinoid (media concentration) for 3, 7 or 14 days, cultures were fixed and sectioned for immunohistochemical analysis.

[4] = women after breast cancer surgery; 200 mg per day for five years versus placebo; cited from earlier work
[5] = system: a variety of cell lines; settings: cited from earlier work
[6] = system: SiHa human cervical cell line; assay: In vitro cytotoxicity (SRB growth inhibition) assay, SiHa; type: cell-based; design: dose or concentration left out as unconfirmed; settings: 72 h
Procedure: (§1) The SHetA2, SHetA3, SHetA4, SHet50 and 9-cis-RA compounds were evaluated in 4 cervical carcinoma cell lines. The SiHa, CC-1 and C33a human cervical cell lines were maintained in Minimal Essential Media (MEM) containing Earle's salts and L-glutamine supplemented with nonessential amino acids, 1% sodium pyruvate, 10% fetal bovine serum (FBS) and antibiotic/antimycotic. The HT-3 cervical carcinoma cell line was cultured in McCoy's 5a medium supplemented with 10% FBS and antibiotic/antimycotic. Cells were inoculated into 96 well microtiter plates at densities of 1000 cells/well and incubated for 24 h prior to addition of drugs. Drugs were dissolved in dimethyl sulfoxide (DMSO) and diluted in complete medium, prior to addition to triplicate culture wells to achieve final concentrations of […]. Following drug addition, the plates were incubated for 72 h. The assay was terminated by the addition of cold TCA and the cells were stained with 0.4% sulforhodamine B (SRB) in 1% acetic acid. Bound stain was subsequently solubilized with 10 mM trizma base, and the absorbance was read on an automated plate reader at a wavelength of 560 nm. Growth inhibition was determined by dividing the average Optical Density (OD) of the triplicated treated cultures by the average OD of the triplicate control cultures treated with DMSO solvent only. This ratio was converted into a percentage by multiplying by 100. The potency (concentration required to induce half of the maximal activity—GI50) were derived from dose-response graphs generated with results from 3 to 5 individual experiments using GraphPad Software.

[7] = system: CC-1 human cervical cell line; assay: In vitro cytotoxicity (SRB growth inhibition) assay, CC-1; type: cell-based; design: dose or concentration left out as unconfirmed; settings: 72 h
Procedure: as §1

[8] = system: C33a human cervical cell line; assay: In vitro cytotoxicity (SRB growth inhibition) assay, C33a; type: cell-based; design: dose or concentration left out as unconfirmed; settings: 72 h
Procedure: as §1

[9] = system: HT-3 cervical carcinoma cell line; assay: In vitro cytotoxicity (SRB growth inhibition) assay, HT-3; type: cell-based, human; design: dose or concentration left out as unconfirmed; settings: 72 h
Procedure: as §1

[10] = system: dorsal skin of female Skh hairless mice; assay: Topical irritancy; type: in vivo; settings: mouse, in vivo
Procedure: Female Skh hairless mice, 6-8 weeks old, were treated topically on the dorsal skin for 4 days over a 2-log concentration dose range with various compounds. Retinoic acid receptor-Hets were evaluated in A, while retinoic acid receptor-independent Flex-Hets were evaluated in B. Daily flaking and abrasion scores were combined to calculate a single cutaneous toxicity score for each mouse. Each treatment group consisted of 4 mice, and group averages were used to plot cutaneous toxicity against doses of the compounds.
Topical irritancy was evaluated according to published procedures (29). Briefly, female Skh hairless mice, 6-8 weeks old, were treated topically on the dorsal skin for 4 days over a 2-log concentration dose range with various compounds. Daily flaking and abrasion scores were combined to calculate a single cutaneous toxicity score for each mouse. Each treatment group consists of 4 mice, and group averages are used to plot cutaneous toxicity against dose of the retinoid compound.

[11] = system: human polycystic kidney disease cells; assay: 3-D gel culture model of polycystic kidney disease; type: cell-based; settings: 4μM, 3 weeks
Procedure: FIG. 21. Effects of Flex-Hets on formation of cysts in cultured polycystic kidney disease cells. A primary culture of polycystic kidney cells were grown inside a mixture of collagen I and matrigel and treated with prostaglandin E2 to induce cyst formation. Parallel cultures were treated with 10 micromolar SHetA3 and SHetA4.
The 3-D model of the PKD was developed as described here. Single-cell suspensions of the PCKD cell lines was re-suspended in a 4° C. solution mixture containing rat tail collagen I (Collaborative Biomedical Products, Bedford, Mass.), matrigel (Becton Dickinson) and MEM. The suspension was poured into Falcon cell culture inserts with transparent membranes containing 0.4 μm pores (Becton Dickinson, Franklin Lakes, N.J.) and placed at 37° C. Treatment of cultures was initiated after 1 day of growth and replenished with medium once in every two days. Drugs (Flex-Hets at 4 μM Conc.) and hormones (PGE2 at 25 ng/ml) were administered into the medium surrounding the insert. Untreated control cultures were grown in the same conditions as that of the treated cultures. Drug treatment was carried out for 3 weeks before their effects on growth and inhibition were evaluated.

[12] = biological assays of efficacy; cited from earlier work

In the case of `CC1=C(/C=C/C(C)=C/C=C/C(C)=C/C(=O)Nc2ccc(O)cc2)C(C)(C)CCC1` [4-HPR, N-(4-hydroxyphenyl) retinamide], the “growth of xenograft tumors versus sesame oil control” value [1] is reported as “significantly inhibited the growth; also recorded: significantly less”, the “ALT Activity” value [2] is reported as 149.7 ± 140.9 mm/liter/min and the “induction of apoptosis (TUNEL) in organotypic cultures” value [3] is reported as “Apoptosis was induced”. The ovarian cancers developed [4] was “statistically significantly fewer ovarian cancers” and the “concentration inducing differentiation (receptor-dependent)” value [5] was 1 µM.
With `CCOC(=O)c1ccc(NC(=O)Nc2ccc3c(c2)C(C)(C)CC(C)(C)S3)cc1` [SHetA4] the “Efficacy: percent growth inhibition relative to the untreated control” value [6] was 67%, the “Efficacy: percent growth inhibition relative to the untreated control” value [7] was 59% and the “Efficacy: percent growth inhibition relative to the untreated control” value [8] was 85%. The “Efficacy: percent growth inhibition relative to the untreated control” value [9] was 76%, the “growth of xenograft tumors versus sesame oil control” value [1] was “significantly less” and the “topical irritancy (cutaneous toxicity score)” value [10] was “did not induce topical irritancy”. The “induction of apoptosis (TUNEL) in organotypic cultures” value [3] was “Apoptosis was induced”, the “formation of branched tubular structures (differentiated phenotype)” value [11] was “induced the formation of several branched tubular structures” and the cyst formation ([11]; PGE2 at 25 ng/ml) was “completely eliminated cyst formation”.
In the case of `C/C(=C\c1ccc(C(=O)O)cc1)c1ccc2c(c1)C(C)(C)CCC2(C)C` [TTNPB], the “potency relative to RA” value [12] is listed as 10 fold.
